Measured values as given in BigSolDB 2.1.

Cc1ccc2c(c1)C(=O)OC2=O
solubility (mole fraction)
Details	278.15 K	283.15 K	288.15 K	293.15 K	298.15 K	303.15 K	308.15 K	313.15 K	318.15 K
in acetone	0.127	0.15	0.176	0.206	0.236	0.272	0.312	0.356	0.406
in acetonitrile	0.101	0.118	0.141	0.167	0.193	0.224	0.258	0.3	0.343
in cyclohexane	–	0.00152	0.0019	0.00245	0.0031	0.00396	0.00489	0.00591	0.00729
in methyl acetate	0.179	0.206	0.236	0.263	0.289	0.328	0.363	0.41	0.449
in n-butyl acetate	0.0226	0.0267	0.0312	0.0397	0.0473	0.0586	0.0716	0.0858	0.102
in n-heptane	0.00107	0.00142	0.00178	0.00227	0.00284	0.00355	0.00444	0.00556	0.007
in tetrachloromethane	0.00751	0.00871	0.0105	0.0127	0.0157	0.0189	0.0222	0.0265	0.0321
in toluene	0.0651	0.0781	0.0945	0.11	0.133	0.158	0.188	0.225	0.273
